Tests used:
[1] = system: subjects with TRD; assay: MADRS total score after a single 40-minute IV infusion, double-blind placebo-controlled study in TRD; format: in vivo, human; details: for Change from Baseline MADRS Total Score, Adjusted mean (SE) / Diff. Adjusted mean (SE) R(−)ketamine - Placebo: MMRM
Experimental: This was a double-blind, randomized, placebo-controlled, multicenter study comprised of 3 phases: screening (up to 2 weeks [day-15 to day-2]), in-clinic treatment (day-1 to day 2; including double-blind treatment [day 1]), and post-treatment follow-up (7 and 14 days after infusion on days 8 and 15, respectively). The study consisted of 3 arms: placebo, R(−)-ketamine solution (30 mg), and R(−)-ketamine solution (60 mg.) A total of 101 adult subjects with TRD were randomly allocated in cohorts of 33-35 subjects/arm to the 3 arms of the study in a blinded manner.
The subjects were randomized within 14 days of screening (Visit 1). Subjects were admitted to the clinic the evening prior to study treatment administration (day-1, Visit 2) and underwent baseline testing to ensure continued study eligibility. Study treatments were infused IV over 40 minutes the next morning (day 1, Visit 2). Starting immediately prior to dosing, subjects were monitored closely for safety.
To determine the efficacy of two doses (30 mg and 60 mg) of intravenous (IV) R(−)-ketamine hydrochloride, the doses were administered as an IV infusion over 40 minutes. These doses are within the range shown to be well-tolerated in a Phase 1 study in healthy volunteers. […] The 10-item clinician-administered MADRS was designed to be used in subjects with MDD to measure the overall severity of depressive symptoms. The MADRS scale is validated, reliable, and acceptable to regulatory health authorities as a primary scale to determine efficacy in major depression.
Population: Subjects with TRD in the full analysis set (FAS) and analyzed according to their randomized treatment. The analysis population includes all randomized subjects who receive any amount of study treatment and have at least one postbaseline assessment available. Variable: Change in total MADRS score from baseline at 24 hours after the start of infusion.
MADRS total score was assessed at 2 and 4 hours, 7 and 14 days after the start of the infusion (days 8 and 15, respectively). Note, for the 2-hour and 4-hour recall periods, the sleep and appetite items were not assessed.
Proportion of subjects with ≥50% improvement in MADRS total score at 24 hours, 7 days, and 14 days after start of infusion (days 8 and 15, respectively).
Proportion of subjects with a MADRS total score≤10 at 24 hours, 7 days, and 14 days after start of infusion (days 8 and 15, respectively).
The 10-item MADRS was administered by the study staff to measure the overall severity of depressive symptoms. The MADRS total score was assessed at screening and baseline (Day 1 pre-dose). The primary efficacy endpoint of improvement in the MADRS total score was evaluated prior to discharge on Day 2 of Visit 2, 24 hours after the start of the infusion of study treatment. The MADRS total score was also assessed at 2 hours, 4 hours, 7 days (on Day 8), and 14 days (on Day 15) after the start of the infusion to evaluate the secondary efficacy endpoints of response (defined as ≥50% improvement in the MADRS total score from pre-dose) and remission (defined as MADRS total score≤10) in the improvement of depressive symptoms in the subjects. While the MADRS is typically used with a 7-day recall period, versions of the MADRS including 2-hour and […] recall periods were used in this study. (For the 2 hour and 4 hour periods, the sleep and appetite items were […]; pre-dose scores for these items obtained on the same day were carried forward).
The change from baseline in MADRS scores was summarized separately by treatment arm for each visit. Associated baseline scores were taken as the last corresponding measurement prior to the first dose of IMP in the treatment period (i.e., Visit 2, pre-dose). The primary endpoint of change from baseline MADRS total score at 24 hours post start of infusion was evaluated using a mixed effects model for repeated measure (MMRM) analysis with observed cases only. […]

[2] = system: mouse model of morphine addiction; assay: Mouse model of morphine addiction; format: in vivo; details: co-administered to mice
[3] = 30 mg, Day 1, 24 hours, primary endpoint
[4] = 60 mg, Day 1, 24 hours, primary endpoint

CN[C@@]1(c2ccccc2Cl)CCCCC1=O.Cl [R(−)-ketamine, (2R)-2-(2-chlorophenyl)-2-(methylamino)cyclohexan-1-one]
MADRS total score, Mean ([1]; 30 mg, 2 hours): 20.7 | MADRS total score, Median ([1]; 30 mg, 2 hours): 21.0 | MADRS total score, Mean ([1]; 30 mg, 4 hours): 19.2 | MADRS total score, Median ([1]; 30 mg, 4 hours): 19.0 | MADRS total score, Mean ([1]; 30 mg, 24 hours (Day 2)): 16.7 | MADRS total score, Median ([1]; 30 mg, 24 hours (Day 2)): 13.0 | Not-responder, % ([1]; 30 mg, Day 1, 2 hours): 72.7% | Responder (>=50% improvement of MADRS total score), % ([1]; 30 mg, Day 1, 2 hours): (27.3) % | adjusted odds ratio R-ket/placebo (95% CI) ([1]; 30 mg, Day 1, 2 hours): 1.667 (0.503, 5.520) | Change from Baseline MADRS Total Score, Adjusted mean (SE) ([1]; 30 mg, Day 1, 2 hours): −9.7 (1.35) | Diff. Adjusted mean (SE) R(−)ketamine - Placebo ([1]; 30 mg, Day 1, 2 hours): −0.6 (1.85) [−4.24, 3.08] | Not-responder, % ([1]; 30 mg, Day 1, 4 hours): 72.7% | Responder (>=50% improvement of MADRS total score), % ([1]; 30 mg, Day 1, 4 hours): (27.3) % | adjusted odds ratio R-ket/placebo (95% CI) ([1]; 30 mg, Day 1, 4 hours): 0.963 (0.317, 2.928) | Change from Baseline MADRS Total Score, Adjusted mean (SE) ([1]; 30 mg, Day 1, 4 hours): −11.2 (1.36) | Diff. Adjusted mean (SE) R(−)ketamine - Placebo ([1]; 30 mg, Day 1, 4 hours): −0.1 (1.86) [−3.81, 3.56] | Not-responder, % ([1]; 30 mg, Day 1, 24 hours): 42.4% | Responder (>=50% improvement of MADRS total score), % ([1]; 30 mg, Day 1, 24 hours): (57.6) % | adjusted odds ratio R-ket/placebo (95% CI) ([1]; 30 mg, Day 1, 24 hours): 1.418 (0.524, 3.837) | Change from Baseline MADRS Total Score, Adjusted mean (SE) [1, 3]: −13.7 (1.75) | Diff. Adjusted mean (SE) R(−)ketamine - Placebo [1, 3]: −0.0 (2.42) [−4.84, 4.77] | MADRS total score, Mean ([1]; 30 mg, Day 8): 19.9 | MADRS total score, Median ([1]; 30 mg, Day 8): 22.0 | Not-responder, % ([1]; 30 mg, Day 8): 70.0% | Responder (>=50% improvement of MADRS total score), % ([1]; 30 mg, Day 8): (30.0) % | adjusted odds ratio R-ket/placebo (95% CI) ([1]; 30 mg, Day 8): 1.040 (0.336, 3.212) | Change from Baseline MADRS Total Score, Adjusted mean (SE) ([1]; 30 mg, Day 8): −10.4 (1.81) | Diff. Adjusted mean (SE) R(−)ketamine - Placebo ([1]; 30 mg, Day 8): 1.0 (2.51) [−4.01, 5.94] | MADRS total score, Mean ([1]; 30 mg, Day 15): 22.8 | MADRS total score, Median ([1]; 30 mg, Day 15): 24.0 | Not-responder, % ([1]; 30 mg, Day 15): 83.9% | Responder (>=50% improvement of MADRS total score), % ([1]; 30 mg, Day 15): (16.1) % | adjusted odds ratio R-ket/placebo (95% CI) ([1]; 30 mg, Day 15): 0.621 (0.169, 2.282) | Change from Baseline MADRS Total Score, Adjusted mean (SE) ([1]; 30 mg, Day 15): −7.5 (1.82) | Diff. Adjusted mean (SE) R(−)ketamine - Placebo ([1]; 30 mg, Day 15): 2.4 (2.53) [−2.62, 7.40] | MADRS total score change from baseline, Mean ([1]; 30 mg, to 2 hours): −8.8 | MADRS total score change from baseline, Median ([1]; 30 mg, to 2 hours): −7.0 | MADRS total score change from baseline, Mean ([1]; 30 mg, to 4 hours): −10.4 | MADRS total score change from baseline, Median ([1]; 30 mg, to 4 hours): −10.0 | MADRS total score change from baseline, Mean ([1]; 30 mg, to 24 hours): −12.8 | MADRS total score change from baseline, Median ([1]; 30 mg, to 24 hours): −15.0 | MADRS total score change from baseline, Mean ([1]; 30 mg, to Day 8): −9.8 | MADRS total score change from baseline, Median ([1]; 30 mg, to Day 8): −7.0 | MADRS total score change from baseline, Mean ([1]; 30 mg, to Day 15): −6.6 | MADRS total score change from baseline, Median ([1]; 30 mg, to Day 15): −5.0 | MADRS total score, Mean ([1]; 60 mg, 2 hours): 18.4 | MADRS total score, Median ([1]; 60 mg, 2 hours): 20.0 | MADRS total score, Mean ([1]; 60 mg, 4 hours): 17.6 | MADRS total score, Median ([1]; 60 mg, 4 hours): 18.0 | MADRS total score, Mean ([1]; 60 mg, 24 hours (Day 2)): 15.1 | MADRS total score, Median ([1]; 60 mg, 24 hours (Day 2)): 16.0 | Not-responder, % ([1]; 60 mg, Day 1, 2 hours): 68.6% | Responder (>=50% improvement of MADRS total score), % ([1]; 60 mg, Day 1, 2 hours): (31.4) % | adjusted odds ratio R-ket/placebo (95% CI) ([1]; 60 mg, Day 1, 2 hours): 2.031 (0.634, 6.504) | Change from Baseline MADRS Total Score, Adjusted mean (SE) ([1]; 60 mg, Day 1, 2 hours): −12.0 (1.31) | Diff. Adjusted mean (SE) R(−)ketamine - Placebo ([1]; 60 mg, Day 1, 2 hours): −2.9 (1.82) [−6.55, 0.67] | Not-responder, % ([1]; 60 mg, Day 1, 4 hours): 62.9% | Responder (>=50% improvement of MADRS total score), % ([1]; 60 mg, Day 1, 4 hours): (37.1) % | adjusted odds ratio R-ket/placebo (95% CI) ([1]; 60 mg, Day 1, 4 hours): 1.536 (0.534, 4.416) | Change from Baseline MADRS Total Score, Adjusted mean (SE) ([1]; 60 mg, Day 1, 4 hours): −12.8 (1.32) | Diff. Adjusted mean (SE) R(−)ketamine - Placebo ([1]; 60 mg, Day 1, 4 hours): −1.7 (1.83) [−5.34, 1.92] | Not-responder, % ([1]; 60 mg, Day 1, 24 hours): 54.3% | Responder (>=50% improvement of MADRS total score), % ([1]; 60 mg, Day 1, 24 hours): (45.7) % | adjusted odds ratio R-ket/placebo (95% CI) ([1]; 60 mg, Day 1, 24 hours): 0.847 (0.318, 2.254) | Change from Baseline MADRS Total Score, Adjusted mean (SE) [1, 4]: −15.3 (1.69) | Diff. Adjusted mean (SE) R(−)ketamine - Placebo [1, 4]: −1.6 (2.38) [−6.35, 3.11] | MADRS total score, Mean ([1]; 60 mg, Day 8): 17.7 | MADRS total score, Median ([1]; 60 mg, Day 8): 21.0 | Not-responder, % ([1]; 60 mg, Day 8): 65.7% | Responder (>=50% improvement of MADRS total score), % ([1]; 60 mg, Day 8): (34.3) % | adjusted odds ratio R-ket/placebo (95% CI) ([1]; 60 mg, Day 8): 1.202 (0.412, 3.511) | Change from Baseline MADRS Total Score, Adjusted mean (SE) ([1]; 60 mg, Day 8): −12.7 (1.72) | Diff. Adjusted mean (SE) R(−)ketamine - Placebo ([1]; 60 mg, Day 8): −1.4 (2.44) [−6.26, 3.45] | MADRS total score, Mean ([1]; 60 mg, Day 15): 19.3 | MADRS total score, Median ([1]; 60 mg, Day 15): 22.0 | Not-responder, % ([1]; 60 mg, Day 15): 65.7% | Responder (>=50% improvement of MADRS total score), % ([1]; 60 mg, Day 15): (34.3) % | adjusted odds ratio R-ket/placebo (95% CI) ([1]; 60 mg, Day 15): 1.715 (0.559, 5.263) | Change from Baseline MADRS Total Score, Adjusted mean (SE) ([1]; 60 mg, Day 15): −11.1 (1.73) | Diff. Adjusted mean (SE) R(−)ketamine - Placebo ([1]; 60 mg, Day 15): −1.2 (2.46) [−6.09, 3.69] | MADRS difference from placebo ([1]; 60 mg, day 15): ~2 point | Statistical significance of the MADRS difference from placebo ([1]; 60 mg, day 15): not statistically significant | MADRS total score change from baseline, Mean ([1]; 60 mg, to 2 hours): −11.3 | MADRS total score change from baseline, Median ([1]; 60 mg, to 2 hours): −10.0 | MADRS total score change from baseline, Mean ([1]; 60 mg, to 4 hours): −12.1 | MADRS total score change from baseline, Median ([1]; 60 mg, to 4 hours): −12.0 | MADRS total score change from baseline, Mean ([1]; 60 mg, to 24 hours): −14.5 | MADRS total score change from baseline, Median ([1]; 60 mg, to 24 hours): −14.0 | MADRS total score change from baseline, Mean ([1]; 60 mg, to Day 8): −12.0 | MADRS total score change from baseline, Median ([1]; 60 mg, to Day 8): −10.0 | MADRS total score change from baseline, Mean ([1]; 60 mg, to Day 15): −10.4 | MADRS total score change from baseline, Median ([1]; 60 mg, to Day 15): −6.0 | Effect on the addictive properties of morphine [2]: significantly attenuated the addictive properties of morphine

Source: US20260027068A1, “METHODS OF ADM[…]-KETAMINE” (Perception Neuroscience, Inc., priority 2022, published 2026)
